In experiment [1] the test system is P-selectin. The experiment in a line: P-selectin/HL-60 assay. It counts as cell-based. The settings on record: FIG. 6; HL-60 cells; tested at several concentrations. From the text:
The glyco-amino acids or glycopeptides of structural formula I can be tested for their ability to inhibit P-selectin binding to its native ligand. A generalized procedure for testing the ligands is given below. A P-selectin/HL-60 assay is preferably used which consists of the following steps:
1. HL-60 cells are harvested and pelleted by centrifugation. The cells are washed, counted and the volume adjusted appropriately.
2. PVC microtiter plate is blocked with a blocking agent, and washed with TBS-BSA.
3. P-selectin is diluted appropriately in BSA-TBS Ca containing goat F(ab')2 anti-human IgG (Fc spec) and streptavidin-alkaline phosphatase. Positive controls have DMF added to equal the highest concentration of DMF in the sample compounds.
4. Ligands are incubated at room temperature with brisk rotation. […]
Para-nitrophenylphosphonate is added to the plate. […] Aliqouts from each well is transferred to a polystyrene microtiter plate and O.D. read at 405 nm. […] The signal produced by the receptor that is previously treated with an inhibitor (recorded as O.D.), is divided by the signal produced by the positive control and multiplied by 100 to calculate the % receptor bound to the well in the presence of the inhibitor. […]
1. […] The cells were washed three times with TBS without Ca, counted and the volume adjusted to 1.9×10^6 /ml in 1% BSA-TBS Ca just prior to use. […]

The test system of experiment [2] is P-selectin. The experiment can be described thus: ELISA assay: inhibition of P-selectin-IgG chimera binding to 2,3 sLex glycolipid. The note with it: FIG. 5; tested at several concentrations; results expressed as percent of control binding. The method, then:
(§1) An ELISA assay (Foxall et al, The Journal of Cell Biology (1992) 117:895) is preferably used which consists of the following three steps:
(§2) 1. 2,3 sLex glycolipid is transferred into microtitre wells as solutions and then evaporated off. Excess, which remained unattached, is washed off with water. The wells are then blocked with a blocking agent, preferably BSA.
(§3) 2. Preparation of "multivalent" receptor of the Selectin-IgG chimera is carried out by combining the respective chimera with biotin labelled goat F(ab')2 anti-human IgG (Fc specific) and streptavidin-alkaline phosphatase diluted appropriately and incubated. This allows the soluble multivalent receptor complex to form.
(§4) 3. Potential inhibitors such as glyco-amino acids or glycopeptides of structural formula I are allowed to react with the soluble receptor. This solution is then placed in the microtitre wells that are prepared in step 1. The plate is incubated to allow the soluble receptor to bind to its natural ligand. In the presence of a strong inhibitor only a few of the receptors should be free to bind to the microtitre plate coated with the natural ligand.
(§5) The positive control is the signal produced by the soluble receptor when it is allowed to react with the natural ligand in the microtitre wells in the absence of any inhibitor. This is considered 100% binding. The signal produced by the receptor that is previously treated with an inhibitor (recorded as O.D.), is divided by the signal produced by the positive control and multiplied by 100 to calculate the % receptor bound to the well in the presence of the inhibitor. The reciprocal of this is the % inhibition.
(§6) The glyco-amino acids or glycopeptides of structural formula I can be tested for their ability to bind to a selectin receptor and/or block the binding site of the receptor and thereby prevent a natural ligand from binding to the selectin receptor (Foxall et al, The Journal of Cell Biology (1992) 117:895). A generalized procedure for testing the ligands is given below.
(§7) An ELISA assay is preferably used which consisted of the following three steps:
1. 2,3 sLex glycolipid (25 picomol/well) was transferred into microtitre wells as solutions and evaporated off. Excess, which remained unattached, was washed off with water. […]
The positive control was the signal produced by the soluble receptor when it was allowed to react with the natural ligand in the microtitre wells in the absence of any inhibitor. […] The signal produced by the receptor that was previously treated with an inhibitor (recorded as O.D.), was divided by the signal produced by the positive control and multiplied by 100 to calculate the % receptor bound to the well in the presence of the inhibitor. […]

The subject of experiment [3] is lymphocyte binding to high endothelial venules (HEV), L-selectin mediated. The experiment in a line: Stamper-Woodruff assay (lymphocyte adhesion to HEV of lymph node frozen sections). The note with it: FIG. 7, percent of relative binding. In kind it is cell-based, female Swiss Webster mice; female Sprague-Dawley rats.
From the text: (§8) Lymphocytes are known to circulate from blood to lymphoid tissues via high endothelial venules (HEV) on lymph nodes. L-selectin is expressed on the surface of lymphocytes and is believed to mediate lymphocyte adhesion by binding to the natural ligand on the HEV. The glyco-amino acids or glycopeptides of structural formula I can be tested for their ability to bind to a selectin receptor and/or block the binding site of the receptor and thereby prevent a natural ligand from binding to the selectin receptor. See, for example, Stoolman et al, The Journal of Cell Biology (1983) 96:722. The Stamper-Woodruff assay is well known in the an, and generally consists of the following three steps:
1. Preparation of the lymphocytes:
(a) The lymphocytes are obtained from the mesenteric nodes of female Swiss Webster mice, by gently teasing tissues with phosphate buffered saline (PBS). The cells are obtained by gently squeezing the cells from the tissues. The cells are dispersed and the cell clumps are removed. The single cell suspension is suspended, washed, and kept on ice until use (less than two hours). Cells are counted and prepared at an appropriate concentration.
(b) The superficial and deep cervical lymph nodes of female Sprague-Dawley rats are dissected and prepared in the same way as the mice.
2. Preparation of frozen sections:
Superficial or deep cervical lymph nodes are dissected from the animals, snap frozen, and immediately placed in a cryostat for sectioning. 10-μm sections are prepared and transferred onto glass slides, and air dried.
3. Potential inhibitors are added to lymphocyte suspensions 10-30 minutes before the start of the binding assay, and unless otherwise stated, are present throughout the subsequent binding incubation.
The frozen sections are used in the order in which they are cut. Aliquots of untreated lymphocytes (positive control), suspensions containing fucoidin (negative control) and suspensions containing potential inhibitors are layered on the sections in an arbitrary sequence such that the control and each test substance are represented once in a series.
The binding of the lymphocytes to the HEV is easily distinguishable from binding elsewhere by virtue of the characteristic picture of tightly packed, darkly stained lymphocytes overlaying the histologically distinctive HEV. The number of adherent lymphocytes on each HEV are counted and the average number of adherent cells per HEV (cells bound per HEV) is calculated. The results are expressed as a percent of relative binding, wherein the positive control is considered to be 100% binding.
as §8, with “were” for “can be”, “art,” for “an,”
(a) The lymphocytes were obtained from the mesenteric nodes of female Swiss Webster mice (23-27 g), by gently teasing tissues by phosphate buffered saline (PBS). […] Cells were counted and prepared at 3-4×10^7 cells/ml. […]

Another experiment concerns L-selectin. The experiment can be described thus: ELISA assay: inhibition of L-selectin-IgG chimera binding to 2,3 sLex glycolipid. The note with it: FIG. 4; tested at several concentrations; results expressed as percent of control binding. The procedure: as §1, §2, §3, §4, §5, §6, §7
1. 2,3 sLex glycolipid (25 picomol/well) was transferred into microtitre wells as solutions and evaporated off. Excess, which remained unattached, was washed off with water. The wells were blocked with 5% BSA at room temperature for an hour and washed with PBS containing 1 mM calcium.
2. Preparation of "multivalent" receptor of the Selectin-IgG chimera was carried out by combining the respective chimera (1 μg/mL) with biotin labelled goat F(ab')2 anti-human IgG (Fc specific) and streptavidin-alkaline phosphatase diluted 1:1000 in 1% BSA-PBS (1 mM calcium) and incubating at 37° C. for 15 min. This allowed the soluble multivalent receptor complex to form.
3. Potential inhibitors such as glyco-amino acids or glycopeptides of structural formula I were allowed to react with the soluble receptor at 37° C. for 45 min. This test assumes that optimal binding, between the soluble phase receptor complex and the inhibitor (non-natural ligand), would occur within this time frame. This solution was placed in the microtitre wells that were prepared in step 1. The plate was incubated at 37° C. for 45 minutes to allow the soluble receptor to bind to its natural ligand. In the presence of a strong inhibitor only a few receptors would be free to bind to the microtitre plate coated with the natural ligand.
The positive control was the signal produced by the soluble receptor when it was allowed to react with the natural ligand in the microtitre wells in the absence of any inhibitor. This was considered 100% binding. The signal produced by the receptor that was previously treated with an inhibitor (recorded as O.D.), was divided by the signal produced by the positive control and multiplied by 100 to calculate the % receptor bound to the well in the presence of the inhibitor. The reciprocal of this is the % inhibition.
Background: ELISA stands for enzyme-linked immunosorbent assay.

As for `C[C@@H]1O[C@@H](CC(=O)N2CCC[C@H]2C(=O)N[C@@H](Cc2ccccc2)C(=O)O)[C@@H](O)[C@H](O)[C@@H]1O` [#1, N-[(1-deoxy-α-L-fucopyranosyl)acetyl]-L-proline-L-phenylalanine], the “inhibition of the binding of sLe^x to P-selectin in the HL-60 assay” value in the experiment on P-selectin [1] is on record as “inhibit the binding of sLe^x to P-selectin”. The “inhibition of the binding of sLe^x to P-selectin” value with P-selectin [2] is “inhibit the binding of sLe^x to P-selectin”. In addition, the “inhibitory effects in the Stamper-Woodruff assay (cell adhesion)” value (from here on “inhibitory effects … (cell adhesion)”) in experiment [3] is reported as “inhibitory effects”. For the same compound, in the experiment with L-selectin, the “inhibition of the binding of sLe^x to L-selectin” value (shortened to “inhibition … to L-selectin”) is listed as “inhibit the binding of sLe^x to L-selectin”.

`C[C@H](NC(=O)C[C@@H]1O[C@@H](C)[C@@H](O)[C@@H](O)[C@@H]1O)C(=O)N1CCC[C@H]1C(=O)N[C@@H](Cc1ccccc1)C(=O)O` [#2, N-[(1-deoxy-α-L-fucopyranosyl)acetyl]-L-alanine-L-proline-L-phenylalanine]: the “inhibition of the binding of sLe^x to P-selectin in the HL-60 assay” value in the experiment on P-selectin [1] is given as “inhibit the binding of sLe^x to P-selectin”. Further, in experiment [3], the “inhibitory effects … (cell adhesion)” value is “inhibitory effects”. Also, in the experiment on L-selectin, the “inhibition … to L-selectin” value is on record as “inhibit the binding of sLe^x to L-selectin”.

For the compound `C[C@@H]1O[C@@H](CC(=O)N[C@@H](CCCCNC(=O)OC(C)(C)C)C(=O)O)[C@@H](O)[C@H](O)[C@@H]1O` [#3, N-ω-t-butoxylcarbonyl-N-α-[(1-deoxy-α-L-fucopyranosyl)acetyl]-L-lysine], the “inhibition of the binding of sLe^x to P-selectin” value in the experiment with P-selectin [2] is “inhibit the binding of sLe^x to P-selectin”. Besides, in experiment [3], the “inhibitory effects … (cell adhesion)” value is “inhibitory effects”. Moreover, in the experiment on L-selectin, the “inhibition … to L-selectin” value was “inhibit the binding of sLe^x to L-selectin”.

Take `C[C@@H]1O[C@@H](CCCC(=O)N2CCC[C@H]2C(=O)N[C@@H](Cc2ccccc2)C(=O)O)[C@@H](O)[C@H](O)[C@@H]1O` [#4, N-[4-(1-deoxy-α-L-fucopyranosyl)n-butanoyl]-L-proline-L-phenylalanine]: in the experiment with P-selectin [2], the “inhibition of the binding of sLe^x to P-selectin” value is given as “inhibit the binding of sLe^x to P-selectin”. The “inhibitory effects … (cell adhesion)” value in experiment [3] is on record as “inhibitory effects”. In the experiment with L-selectin, the “inhibition … to L-selectin” value is given as “inhibit the binding of sLe^x to L-selectin”.

In the case of `C[C@@H]1O[C@@H](CC(=O)N2CCC[C@H]2C(=O)N[C@H](C(=O)O)c2ccccc2)[C@@H](O)[C@H](O)[C@@H]1O` [#5, N-[(1-deoxy-α-L-fucopyranosyl)acetyl]-L-proline-L-phenylglycine], the “inhibition of the binding of sLe^x to P-selectin” value with P-selectin [2] is on record as “inhibit the binding of sLe^x to P-selectin”. The “inhibitory effects … (cell adhesion)” value in experiment [3] is on record as “inhibitory effects”. The “inhibition … to L-selectin” value in the experiment with L-selectin is given as “inhibit the binding of sLe^x to L-selectin”.

For `CC1OC(CCCC(=O)NC(Cc2ccccc2)C(=O)O)C(O)C(O)C1O` [#6, N-[4-(1-deoxy-α-L-fucopyranosyl)n-butanoyl]-L-phenylalanine], in the experiment with L-selectin, the “inhibition … to L-selectin” value is on record as “inhibit the binding of sLe^x to L-selectin”.

(Values after patent US5508387A, “Selectin binding glycopeptides” (Glycomed Incorporated, priority 1993, dated 1996).)
